US4985558A, “1,4-dihydropyridine derivative” (Nikken Chemicals Co., Ltd., priority 1988, dated 1991)
Several values for one entry are separate records, joined by “and”; a condition that tells them apart may be missing. Identical values can stand only once.

How the values were obtained:
[1] = test system: vincristine (VCR)-resistant mouse leukemia (P388/VCR) cells; test: Antitumor agent potentiating effect in vincristine-resistant tumor bearing mouse (Example 11, i.p. 5 days); assay type: in vivo
Protocol: (§1) The potentiating effect of the antitumor agent (T/V) % was determined according to the formula shown below. Verapamil was employed as the positive Control compound. […] In the Tables, Compound 1 is the compound obtained in Example 1, Compound 2 that obtained in Example 2, Compound 3 that obtained in Example 3, Compound 4 that obtained in Example 4, and Compound 5 that obtained in Example 5. [formula]

rat rectum smooth muscle = test: Inhibitory effects on potassium contracture in rat rectum smooth muscle; assay type: cell-based; conditions: 5 min, K contraction 5.6 to 56.0 mM, read-out: Inhibition ratio; for inhibition at 0.1 µM: 10^-7 M; for inhibition at 0.01 µM: 10^-8 M
Protocol: Rat rectum (about 1.5 cm) was isolated and suspended in a Magnus tube. A Locke solution was employed as the nutrient solution, and a contraction of the intestinum rectum was caused by changing the potassium (K) concentration of this solution from 5.6 mmol (mM) to 56.0 mM. This contraction was a contraction through a membrane dependent Ca-channel mediated contraction based on depolarization by a K concentration change. The contraction was recorded by an FD-transducer and polygraph. The compounds of the present invention were permitted to act 5 minutes before changing the K concentration, and simultaneously with changing the K concentration. […] A judgement was made 5 minutes after changing the K concentration, and the difference in contraction before the concentration change was indicated as an inhibition % value. Verapamil and nicardipine were employed as the positive control compound .

ICR mice = test: acute toxicity test; conditions: mouse, in vivo;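 note: intraperitoneal dosing with deaths counted over 10 days of observation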
Protocol: Male 6-week-old ICR mice were divided into groups of 2 to 5 mice per group. […] The drugs to be tested were administered in varying amounts of 250 to 2000 mg/kg to 5 or 7 groups (a geometrical series of .cent.2), at a dose volume of 10 ml/kg. In the Table, the respective compounds have the same meanings as described above.

[2] = test system: spontaneously hypertensive rats (SHR); conditions: rat, in vivo, ip, 100 mg/kg
Protocol: The systolic blood pressure was measured by using spontaneously hypertensive rats (SHR), which are a model of hypertension when examine the hypotensive activities of the compounds of the present invention and the positive Control compound. The rats were warmed for 5 minutes in a warming box at 55° C., and their blood pressure then measured by a tail cuff plethysmograph. The compounds of the present invention were administered singly and intraperitoneally at a dose of 100 mg/kg and the positive Control compound was administered singly and intraperitoneally at a dose of 10 mg/kg. […] Blood pressure measurements were taken before administration and 60 minutes after administration. Nicardipine was employed as the positive Control compound.

[3] = test system: vincristine (VCR)-resistant mouse leukemia (P388/VCR) cells; test: Antitumor agent potentiating effect in vincristine-resistant tumor bearing mouse (Example 12, i.p.); assay type: in vivo
Protocol: as §1
The potentiating effect of the antitumor agent (T/V) % was determined as described above (Example 11). Nicardipine was employed as the positive Control compound, and was administered intraperitoneally for 10 days. […] In the Tables, Compound 6 is the compound obtained in Example 6, Compound 7 that obtained in Example 7, and Compound 8 that obtained in Example 8.

[4] = compound 100 mg/kg i.p. + VCR 30 μg/kg i.p.
[5] = compound alone 100 mg/kg i.p., no VCR

SMILES | Potentiating effect T/V [1, 4] [%] | Survival Days (Mean ± SD) [1, 4] [days] | Survival ratio T/C [1, 4] [%] | Survival Days (Mean ± SD) [1, 5] [days] | Survival ratio T/C [1, 5] [%] | inhibition at 0.1 µM (rat rectum smooth muscle) [%] | Mortality (ICR mice) | inhibition at 0.01 µM (rat rectum smooth muscle) [%] | Blood pressure change [2] [mmHg] | Systolic Blood Pressure 60 minutes after administration [2] [mmHg] | Potentiating effect T/V [3, 4] [%] | Survival Days (Mean ± SD) [3, 4] [days] | Survival ratio T/C [3, 4] [%] | Survival Days (Mean ± SD) [3, 5] [days] | Survival ratio T/C [3, 5] [%]
CC1=C(C(=O)OCc2ccccn2)C(C2=COCCO2)C(C(=O)OCc2ccccn2)=C(C)N1 [Compound 1, bis(2-pyridylmethyl) 4-[2-(5,6-dihydro-p-dioxinyl)]-2,6-dimethyl-1,4-dihydropyridine-3,5-dicarboxylate] | 116 | 14.5 ± 1.6 | 121 | 12.2 ± 0.8 | 102 | 11.2 | 0/2 | – | – | – | – | – | – | – | –
CC1=C(C(=O)OCc2cccc(C)n2)C(C2=COCCO2)C(C(=O)OCc2cccc(C)n2)=C(C)N1 [Compound 2] | 130 | 13.7 ± 1.0 | 140 | 10.3 ± 0.5 | 105 | -2.1 | 0/4 and 1/5 and 0/5 | -5.6 | -15 | 204 | – | – | – | – | –
CC1=C(C(=O)OCCCc2cccnc2)C(C2=COCCO2)C(C(=O)OCCCc2cccnc2)=C(C)N1 [Compound 3, bis[3-(3-pyridyl)propyl]4-[2-(5,6-dihydro-p-dioxinyl)]-2,6-dimethyl-1,4-dihydropyridine-3,5-dicarboxylate] | 130 | 13.7 ± 1.5 | 140 | 10.3 ± 0.5 | 105 | -4.2 | 4/4 and 3/4 and 1/5 and 2/5 and 0/5 | -11.5 | – | – | – | – | – | – | –
CC1=C(C(=O)OCc2ccccn2)C(C2=CSCCS2)C(C(=O)OCc2ccccn2)=C(C)N1 [Compound 6, bis(2-pyridylmethyl) 4-[2-(5,6-dihydro-1,4-dithiinyl)]-2,6-dimethyl-1,4-dihydropyridine-3,5-dicarboxylate] | – | – | – | – | – | – | 0/2 and 0/3 | – | -30 | 191 | 125 | 14.2 ± 1.2 | 138 | 10.8 ± 0.8 | 105
